The source of these data is patent publication US20250144187A1, “COMBINATION OF HYDROLASES AND ANTI-MICROORGANISM DRUGS AND USES THEREOF” (CENTRE FOR EYE AND VISION RESEARCH LIMITED, priority 2023, published 2025).

SMILES strings stand for the structures. Bounds are passed on as bounds.

In assay [1] the test system is MRSA-infected skin wound. The assay can be described thus: Rat skin infection model, cefdinir/lysozyme. It counts as in vivo, Sprague Dawley (SD) rats. The settings on record: combination therapy vs control or mono-therapy groups. The method, then:
16) Rat skin Infection model. […] Others were infected by about 5×10^11 CFU of mid-log phase MRSA from our own collection. Briefly, all rats were firstly pre-depilated by using 10% Na2S to get an uncovered back area of 4 cm×4 cm prior to 24 hours for the anesthetization on rats. Then, the skin of anesthetized rat was removed until fascial region under sterile condition, followed by bacterial infection by spraying 5×10^11 CFU of MRSA suspension on wound (3 cm×3 cm). To collect these bacterial suspensions, mid-log phase MRSA would be collected by centrifugation at 4500 g for 15 minutes washed with PBS for 3 limes and re-suspended in cold PBS to get bacterial suspension with an initial density of about 4.0×10^11 CFU/ml according to pre-experiment. Next, 1.25 ml of bacterial suspensions was inoculated into wound, Normal saline was used to replace bacterial suspension in uninfected group. After 1 hour infection, wound of infected rat was covered by sterile medical gauze. All sterile medical gauzes were 0.2 g/cm^2, which were further covered by two layers of sterile gauzes and fixed by sterile tapes. After that, rats were monitored until they were fully awake, followed by return to their cages. After 24 hours infection, these sterile medical gauzes were replaced with new sterile medical gauzes. […] About 4-μm sections was analyzed by using the hematoxylin and eosin (H-E) staining. […]

Assay [2] has as its system MRSA. The assay can be described thus: High-throughput screening of 1953 FDA-approved compounds with human lysozyme. It counts as cell-based, Staphylococcus aureus. To be noted: compound 25 μM + 1 mg/ml lysozyme, 24-hour. The method, then:
1) High-throughput screening. According to standard screening method [Zhong. […] Commun. 11, 523 (2020)], 1953 FDA-approved compounds from our drugs library at a fixed concentrations of 25 μM were screened against methicillin-resistant Staphylococcus aureus (MRSA) and Staphylococcus epidermis (a coagulase negative Staphylococci, MRSE), in combination with human lysozyme. Specifically, these compounds were added into bacterial suspensions (1×10^5 CFU/ml, in LB medium) in the absence or presence of 1 mg/ml lysozyme. LB medium without bacteria served as background group. Then, the real-time growth curvet of MRSA were monitored per hour and for 24 hours. Absorbance at 600 am (OD600) of bacterial culture at the time point of 24-hour was also measured. The inhibition ratio (%) was calculated as (ODcontrol−ODsample)/(ODcontrol−ODbackground)×100%. […] Herein, the relative and apparent inhibition ratios indicated the combination effect and potential toxicity of compound, respectively. Synergy effect was defined as the relative inhibition ratio of ≥90%. All assays were performed in triplicate.

Assay [3] deals with MRSA. The assay can be described thus: Time-killing curves, tedizolid phosphate/lysozyme. The settings on record: tedizolid phosphate + 0.5 mg/ml lysozyme, after 22 hours; dropping from the level of 10^12. It counts as cell-based, Staphylococcus aureus. How it is done:
3) Time-killing curves. According to standard method [Sun. H et al., Nat. Commun. 11, 5263 (2020); Thappeta, K. R. V., Vikke. Y. S., Yong. A. M. H., Chan-Park. M. B. Kline, K. A. Combined efficacy of an antimicrobial cationic peptide polymer with conventional antibiotics to combat multidrug-resistant pathogens. ACS Infect. Dis. 6, 1229-1237 (2020)], over-night cultured MRSA was diluted and aliquoted into new sterile 50 ml tubes at 1:1000 ratio. Then, the bacterial suspension was co-cultured with 0.25 or 0.5 μg/ml tedizolid phosphate, 0.5 mg/ml lysozyme or their combination at 37° C. with shaking at 50 rpm. Similar bacterial suspension without any additions served as control group. To measure their real bacterial loads to draw their kinetic time-killing curves, 20 μl of each culture was extracted at time intervals of 0, 1, 3, 6, 9, 12 and 22 hours, and then 10 μl of each sample (10-fold serial dilution) was applied onto LB-agar plate and incubated at 37° C. for 24 hours. All assays were performed in triplicate.

For assay [4], the system named is MRSA-infected skin wound. The assay can be described thus: Rat skin infection model, tedizolid phosphate/lysozyme. To be noted: combination therapy. It counts as in vivo, Sprague Dawley (SD) rats. The method, then:
19) Skin infection model. […] Except 3 rats in uninfected group, other 12 rats were infected by 5×10^11 CFUs of mid-log phase MRSA from our own collection. Briefly, all rats were firstly pec-depilated by using 10% Na2S to get an uncovered back area of 4 cm×4 cm before 24 hours for the anesthetization on rats. Then, the skin of anesthetized rat was removed until fascial region under sterile condition, followed by spraying 5.0×10^11 CFUs of mid-log phase MRSA on wound (3 cm×3 cm). Bacterial suspensions were collected by below-described method [Zhang. […] Specifically, mid-log phase MRSA was collected by centrifugation at 4500 g for 15 minutes, washed with PBS for 3 limes and re-suspended in cold PBS to get bacterial suspension with an initial density of about 4.0×10^11 CFU/ml according to pre-experiment. Next, 1.25 ml of bacterial suspension was sprayed onto wound. […] All sterile medical gauzes were 0.2 g/cm^2, and further covered by two layers of sterile gauzes and fixed by sterile tapes. Next, rats were monitored until they were fully awake, and then returned to their cages. After 24 hours infection, these sterile medical gauzes were replaced with new sterile medical gauzes soaking different drugs, i.e., normal saline, tedizolid phosphate (0.167 mg/kg) or lysozyme (0.833 mg/kg), or their combination (0.167 mg tedizolid phosphates/kg rat+0.833 mg lysosyme/kg rat), respectively. Meanwhile, rats in uninfected group were treated with new sterile medical gauzes soaking normal saline. All steps were repeated at 48-, 72-, 96-, 120- and 144-hr post-inoculation. At 168 hours post-inoculation, all rats were sacrificed to collect their wounds. These collected tissues were fixed in 10% formalin for at least 24 hours and embedded in paraffin. Next, about 4-μm sections were analyzed by using the hematoxylin and eosin (H-E) staining kit. […] Meanwhile, this homogenate was also 10-fold gradient-diluted in 96-well plate to figure out the bacterial load in infected wound according to quantitative grown colony after overnight culture. […]

Turning to `C=CC1=C(C(=O)O)N2C(=O)[C@@H](NC(=O)/C(=N\O)c3csc(N)n3)[C@H]2SC1` [cefdinir, Cefdinir], in assay [1], the “decrease in the level of IL-6 in wounds” value is > 16% and the “decrease in the level of ROS in wounds” value was “more than 36%”. For the same compound, the “Growth inhibition ratio (mean ± SD, %) MRSA” value in assay [2] was 85.21 ± 9.84%.
Turning to `Cn1nnc(-c2ccc(-c3ccc(N4C[C@H](COP(=O)(O)O)OC4=O)cc3F)cn2)n1` [tedizolid phosphate, Tedizolid Phosphate], the “bacterial load per ml culture” value in assay [3] is listed as 10^6 colony forming units (CFUs). In assay [4] (7 days), the “decrease in the level of IL-6” value is given as “more than 20%” and the “decrease in the level of ROS” value is reported as > 70%. In addition, the “reduction of bacterial load in the wound” value in assay [4] (168 hours post-inoculation) is on record as > 10^6 fold.
